Experimental findings from paper PMC10799935, “Discovery of a peripheral 5HT2A antagonist as a clinical candidate for metabolic dysfunction-associated steatohepatitis” (Nature Communications, 2024) are described below.

Data set [1] in a line: Pharmacokinetic study in dogs. Conditions: dog. Format: in vivo, Beagle dogs. The procedure:
The experimental protocol for this study was approved by the IACUC of KPC Co., Ltd. (No. KPC IACUC-P203046; Beagle dogs) or QuBEST BIO (No.QBIACUC-A20131). All relevant ethical guidelines were followed. Beagle male dogs (11 ~ 20 months old) were purchased from ORIENT BIO Inc. and were housed in the barrier animal facility of KPC Co., Ltd. under a regular light-dark cycle (12-hour light/12-hour dark) at 21.1–23.4°C with 55.3–72.2% humidity. Food (standard irradiated pelleted commercial laboratory diet, Cargill Agri Purina, 300 g/dog.day) and water were provided ad libitum. All study dogs were returned to the laboratory colony after the study without any euthanasia. Sprague-Dawley male rats (7 weeks old) were purchased from SAMTAKOBIOKOREA, Inc. and were housed in the barrier animal facility of Nonclinical Research Center, QuBEST BIO under a regular light-dark cycle (12-hour light/12-hour dark) at 19.7–22.7°C with 54.5–65.6% humidity. Food (standard irradiated pelleted commercial laboratory diet, Purina Rodent Chow, 38057) and water were provided ad libitum. All study rats were euthanized by CO2 gas upon study completion.
Blood samples were collected at the scheduled times up to 24 h post-dose (IV: 0.083, 0.25, 0.5, 1, 2, 4, 8, 12 and 24 h post-dose, PO: 0.25, 0.5, 1, 2, 4, 8, 12 and 24 h post-dose). Determination of compound 11c in plasma was performed by UHPLC-MS/MS. Pharmacokinetic parameters were calculated by noncompartmental analysis using Phoenix® WinNonlin® (Ver. 8.3‘, Certara).

The subject of the next data set is STZ+HFD mice. The experiment in a line: STZ+HFD mice (modified STAM) NASH and liver fibrosis model. It counts as in vivo, mouse. The procedure:
Mice were intraperitoneally injected with low-dose streptozotocin (40 mg/kg; 5 times) in 7-week-old mice. After injection with STZ, mice were fed an HFD for 16 weeks to induce NASH and liver fibrosis. After 16 weeks of an HFD, mice were fed a standard chow diet to mimic the NASH patient under […]
nine weeks by oral gavage (Reviewer-only data 4). […]
inflammation, hepatocyte ballooning, and total NAFLD activity score by the NASH CRN histological scoring system (Reviewer-only data 4B, C). […]
hepatic fibrosis stage similar to STZ+HFD mice treated with OCA (Reveiwer-only data 4D, E). STZ+HFD mice […]
function (Reviwer-only data 4F). […]
group (Reviewer-only data 4G). Furthermore, the expression of genes related to lipogenesis and fibrosis was reduced in the compound 11c-treated group in a dose-dependent manner (Reviewer-only data 4H, I). These […]
Reviewer-only Data 4. Compound 11c treatment with dietary modification ameliorates NASH and liver fibrosis in a dose-dependent manner. (A) Experimental scheme for in vivo efficacy of compound 11c in […]
(STZ+HFD mice. (B-I) STZ+HFD mice fed HFD for 16 weeks were switched to SCD for 9 weeks and were treated with vehicle, compound 11c, or OCA by daily oral gavage. (B) Representative liver histology by H&E staining […]
mg/kg. Scale bars, 100µm. […]
mice; n = 9 per group. (D) Representative liver histology by Masson’s trichrome staining from vehicle, […]
Scale bars, 100µm. (E) Fibrosis stage
(F) Serum AST and ALT levels; n = 9 per […]
group. (G) Serum TG levels and hepatic TG levels; n = 9 per group. (H) Relative mRNA expression of lipogenesis-related genes as assessed by qRT-PCR in the liver; n = 9 per group. (I) Relative mRNA expression of fibrosis-related genes as assessed by qRT-PCR in the liver; n = 9 per group. Data are expressed as the means ±SEM.
[…], **P<0.01, one-way ANOVA with post hoc Tukey’s test (C, E, F, G, H, I). […]
Representative liver histology by Masson’s trichrome staining and Sirius Red staining. Scale bars, 100µm. (E) […]
one-way ANOVA with post hoc Tukey’s test (C, E).
Comment 2: In "Methods", the author claims to use HEK293 cells (a type of cell derived from kidney embryos) for cell research, however, the data in Table 5 are the results of hepatocyte experiments. What happened? Response: We appreciate the Reviewer’s comment. HEK293 cells were used for inhibition assay (cell research), shown in Table 1-3 of the main manuscript, while, hepatic cell lines were used for chemical profiling and for “Hepatocyte stability” test, shown in Table 5 of the main manuscript. The “Selectivity” of Compound 11c for different 5HT subtypes is elucidated in response to Comment 6.
We have modified the Methods section to provide clarity.

Data set [2] in a line: In vivo PK with diverse doses (5, 10, 20 mpk) for PK and PD co-relation. The procedure: In this paper, the authors based on their previous studies on 5-HT2A LKO mice and 5HT2A antagonists, try to synthesize a serial of new derivatives based on the compound 2 (Clarinex) to develop oral drug candidates of […]
Then the authors tested the pharmacokinetics of compound 11c both in rats and dogs by iv and gavage administration. Besides, the tissue distribution of compound 11c was also determined by […]
NASH and fibrosis. The following questions may need to be answered by the authors.
Comment 1: In general, after gavage administration for 8 weeks (page 178-179) or 12 weeks (page 274-275), the compound 11c mainly distributed in digestive track especially in intestines with comparatively lower plasma drug concentration as well as in the other organs.
Response: We appreciate the Reviewer’s comment. For most oral drugs, the high level of total radioactivity is often observed in gastrointestinal tract in QWBA (Quantitative Whole Body Autoradiography). In the study of QWBA for compound 11c, tissue distribution was evaluated in multiple time points. Total radioactivities in stomach and small intestine were high at early time points and decreased at late time points. […]

Setting [3] is: male, beagle, plasma, 5 mg/kg, IV (5 mpk).
Where [4] appears, read: male, beagle, plasma, 5 mg/kg, PO (5 mpk).

Several values for one entry are separate records, joined by “and”; a condition that tells them apart may be missing. Equal entries are not always repeated. Entries after “also recorded” stand apart in the source; their conditions may differ. Where two headings read alike, the source gives them in different places.

A word on the AUC: it is the area under the concentration-time curve, a measure of exposure. Usually clearance stands for a measure of how efficiently the substance is removed, as volume per time. As usually defined, the half-life is how long it takes for the measured level to halve. Low values mean fast loss, high ones slow loss. For the compound `Cc1nc2n(c(=O)c1CCN1CCC(=C3c4ccc(Cl)cc4CCc4cccnc43)CC1)CCCC2O` (stereo not drawn) [Compound 11c], the “V” value in data set [1] (IV (5 mpk)) came to 4.36 L/kg. Further, the bioavailability in data set [1] (male, beagle, plasma, po, 5 mpk, dogs (summary statement), read-out: oral bioavailability) was more than 60%. In data set [1] (setting [3]), this compound showed an AUC of 16800 ng·h/mL, a clearance of 7 mL/min/kg and a half-life of 8.6 h. In data set [1] (setting [4]), the AUC worked out at 19100 ng·h/mL and the half-life is 10.2 h. Further, in data set [1] (male, beagle, plasma, 5 mg/kg, PO (5 mpk), read-out: F (%)), the bioavailability came to 73%. In the data set on STZ+HFD mice, the Hepatic triglyceride levels entry is listed as “reduced”; the “plasma AST and ALT levels” value is recorded as “decreased”. In addition, the “fibrosis stage and total NAFLD activity score” value with STZ+HFD mice (5 or 10 mg/kg daily oral gavage, nine weeks) was “effectively improved; also recorded: better than obeticholic acid”. In the data set on STZ+HFD mice (11c 5 or 10 mg/kg, OCA 10 mg/kg), the hepatic fibrosis stage result is recorded as “improvement”. For the same compound, the “hepatic steatosis, lobular inflammation, hepatocyte ballooning, and total NAFLD activity score” value in the data set on STZ+HFD mice (NASH CRN scoring) is given as “improved”. The “expression of genes related to lipogenesis and fibrosis” value in the data set with STZ+HFD mice (dose-dependent manner) is recorded as “reduced”. In addition, the “concentration present up to 8 hrs” value in data set [2] is “more than 20 nM and > 10 ng/mL”.
